± gives the expanded uncertainty stated by the source.
Assay: activity coefficient (dimensionless); of the first substance listed, at infinite dilution; xn = mol fraction of the nth substance listed
Details: 100 kPa, Liquid, Chromatography, x1 = 0

SMILES	activity coefficient (308.15 K)	activity coefficient (318.15 K)	activity coefficient (328.15 K)	activity coefficient (338.15 K)	activity coefficient (348.15 K)	activity coefficient (358.15 K)	activity coefficient (368.15 K)
C1CCCCC1 [cyclohexane] + CCCC[n+]1ccc(C#N)cc1.O=S(=O)([N-]S(=O)(=O)C(F)(F)F)C(F)(F)F	17.7 ± 1.5	16.3 ± 1.4	15.1 ± 1.3	14.2 ± 1.2	13.2 ± 1.1	12.4 ± 1.1	11.7 ± 1
C1=CCCCC1 [cyclohexene] + CCCC[n+]1ccc(C#N)cc1.O=S(=O)([N-]S(=O)(=O)C(F)(F)F)C(F)(F)F	7.51 ± 0.65	7.4 ± 0.64	7.28 ± 0.63	7.19 ± 0.62	7.1 ± 0.61	7.1 ± 0.61	6.9 ± 0.6
C1CCCCCCC1 [cyclooctane] + CCCC[n+]1ccc(C#N)cc1.O=S(=O)([N-]S(=O)(=O)C(F)(F)F)C(F)(F)F	26.5 ± 2.3	25.2 ± 2.2	24.1 ± 2.1	23.2 ± 2	22.4 ± 1.9	21.6 ± 1.9	20.9 ± 1.8
C1CCCC1 [cyclopentane] + CCCC[n+]1ccc(C#N)cc1.O=S(=O)([N-]S(=O)(=O)C(F)(F)F)C(F)(F)F	12.7 ± 1.1	11.6 ± 1	10.7 ± 0.9	9.97 ± 0.86	9.31 ± 0.8	8.69 ± 0.75	8.14 ± 0.7
CCCCCCCCCC [decane] + CCCC[n+]1ccc(C#N)cc1.O=S(=O)([N-]S(=O)(=O)C(F)(F)F)C(F)(F)F	124 ± 11	115 ± 10	107 ± 9	99.8 ± 8.6	93.8 ± 8.1	88.2 ± 7.6	83.6 ± 7.2
CCOCC [diethyl ether] + CCCC[n+]1ccc(C#N)cc1.O=S(=O)([N-]S(=O)(=O)C(F)(F)F)C(F)(F)F	3.17 ± 0.27	3.24 ± 0.28	3.31 ± 0.29	3.37 ± 0.29	3.44 ± 0.3	3.5 ± 0.3	3.56 ± 0.31
CC(C)OC(C)C [diisopropyl ether] + CCCC[n+]1ccc(C#N)cc1.O=S(=O)([N-]S(=O)(=O)C(F)(F)F)C(F)(F)F	9.7 ± 0.84	9.65 ± 0.83	9.59 ± 0.83	9.57 ± 0.83	9.53 ± 0.82	9.48 ± 0.82	9.45 ± 0.82
CCCOCCC [dipropyl ether] + CCCC[n+]1ccc(C#N)cc1.O=S(=O)([N-]S(=O)(=O)C(F)(F)F)C(F)(F)F	8.88 ± 0.77	8.84 ± 0.76	8.83 ± 0.76	8.78 ± 0.76	8.75 ± 0.76	8.73 ± 0.75	8.71 ± 0.75
CCO [ethanol] + CCCC[n+]1ccc(C#N)cc1.O=S(=O)([N-]S(=O)(=O)C(F)(F)F)C(F)(F)F	1.86 ± 0.16	1.74 ± 0.15	1.64 ± 0.14	1.55 ± 0.13	1.47 ± 0.12	1.39 ± 0.12	1.33 ± 0.11
CCOC(C)=O [ethyl acetate] + CCCC[n+]1ccc(C#N)cc1.O=S(=O)([N-]S(=O)(=O)C(F)(F)F)C(F)(F)F	0.839 ± 0.07	0.89 ± 0.074	0.941 ± 0.077	0.995 ± 0.082	1.05 ± 0.09	1.1 ± 0.09	1.15 ± 0.1
CCc1ccccc1 [ethylbenzene] + CCCC[n+]1ccc(C#N)cc1.O=S(=O)([N-]S(=O)(=O)C(F)(F)F)C(F)(F)F	2.49 ± 0.21	2.58 ± 0.22	2.67 ± 0.23	2.77 ± 0.24	2.85 ± 0.25	2.93 ± 0.25	3.03 ± 0.26
CCCCCCC [heptane] + CCCC[n+]1ccc(C#N)cc1.O=S(=O)([N-]S(=O)(=O)C(F)(F)F)C(F)(F)F	45.8 ± 4	42.5 ± 3.7	39.8 ± 3.4	37.4 ± 3.2	35.3 ± 3.1	33.5 ± 2.9	31.7 ± 2.7
C=CCCCC [hex-1-ene] + CCCC[n+]1ccc(C#N)cc1.O=S(=O)([N-]S(=O)(=O)C(F)(F)F)C(F)(F)F	14.1 ± 1.2	13.8 ± 1.2	13.5 ± 1.2	13.2 ± 1.1	12.9 ± 1.1	12.7 ± 1.1	12.5 ± 1.1
CCCCCC [hexane] + CCCC[n+]1ccc(C#N)cc1.O=S(=O)([N-]S(=O)(=O)C(F)(F)F)C(F)(F)F	33 ± 2.9	30.7 ± 2.7	28.8 ± 2.5	27.1 ± 2.3	25.6 ± 2.2	24.2 ± 2.1	23.1 ± 2
CC(C)c1ccccc1 [isopropylbenzene] + CCCC[n+]1ccc(C#N)cc1.O=S(=O)([N-]S(=O)(=O)C(F)(F)F)C(F)(F)F	4.04 ± 0.35	4.13 ± 0.36	4.22 ± 0.36	4.31 ± 0.37	4.39 ± 0.38	4.47 ± 0.39	4.56 ± 0.39
CO [methanol] + CCCC[n+]1ccc(C#N)cc1.O=S(=O)([N-]S(=O)(=O)C(F)(F)F)C(F)(F)F	1.33 ± 0.11	1.27 ± 0.11	1.21 ± 0.1	1.17 ± 0.1	1.12 ± 0.09	1.08 ± 0.09	1.05 ± 0.09
CCCC(=O)OC [methyl butanoate] + CCCC[n+]1ccc(C#N)cc1.O=S(=O)([N-]S(=O)(=O)C(F)(F)F)C(F)(F)F	1.15 ± 0.1	1.22 ± 0.1	1.28 ± 0.11	1.35 ± 0.11	1.42 ± 0.12	1.48 ± 0.13	1.55 ± 0.13
COC(C)=O [methyl ethanoate] + CCCC[n+]1ccc(C#N)cc1.O=S(=O)([N-]S(=O)(=O)C(F)(F)F)C(F)(F)F	0.607 ± 0.053	0.646 ± 0.056	0.685 ± 0.059	0.724 ± 0.061	0.762 ± 0.064	0.8 ± 0.067	0.839 ± 0.07
CCC(=O)OC [methyl propanoate] + CCCC[n+]1ccc(C#N)cc1.O=S(=O)([N-]S(=O)(=O)C(F)(F)F)C(F)(F)F	0.8 ± 0.067	0.855 ± 0.071	0.905 ± 0.075	0.956 ± 0.079	1.01 ± 0.08	1.06 ± 0.09	1.11 ± 0.09
CC1CCCCC1 [methylcyclohexane] + CCCC[n+]1ccc(C#N)cc1.O=S(=O)([N-]S(=O)(=O)C(F)(F)F)C(F)(F)F	23.4 ± 2	21.8 ± 1.9	20.4 ± 1.8	19.1 ± 1.7	18 ± 2	17.1 ± 1.5	16.2 ± 1.4
CCCCCCCCC [nonane] + CCCC[n+]1ccc(C#N)cc1.O=S(=O)([N-]S(=O)(=O)C(F)(F)F)C(F)(F)F	92.9 ± 8	85.9 ± 7.4	79.8 ± 6.9	74.1 ± 6.4	69.4 ± 6	65.3 ± 5.7	61.5 ± 5.3
C=CCCCCCC [oct-1-ene] + CCCC[n+]1ccc(C#N)cc1.O=S(=O)([N-]S(=O)(=O)C(F)(F)F)C(F)(F)F	31.7 ± 2.7	30.1 ± 2.6	28.6 ± 2.5	27.3 ± 2.4	26.3 ± 2.3	25.3 ± 2.2	24.3 ± 2.1
CCCCCCCC [octane] + CCCC[n+]1ccc(C#N)cc1.O=S(=O)([N-]S(=O)(=O)C(F)(F)F)C(F)(F)F	65 ± 5.6	59.9 ± 5.2	55.3 ± 4.8	51.3 ± 4.4	47.9 ± 4.1	45 ± 4	42.4 ± 3.7
CCCCCO [pentan-1-ol] + CCCC[n+]1ccc(C#N)cc1.O=S(=O)([N-]S(=O)(=O)C(F)(F)F)C(F)(F)F	3.84 ± 0.33	3.58 ± 0.31	3.36 ± 0.29	3.15 ± 0.27	2.97 ± 0.26	2.81 ± 0.24	2.67 ± 0.23
CCCC(C)=O [pentan-2-one] + CCCC[n+]1ccc(C#N)cc1.O=S(=O)([N-]S(=O)(=O)C(F)(F)F)C(F)(F)F	0.697 ± 0.06	0.739 ± 0.063	0.783 ± 0.066	0.824 ± 0.069	0.868 ± 0.072	0.909 ± 0.075	0.95 ± 0.078
CCC(=O)CC [pentan-3-one] + CCCC[n+]1ccc(C#N)cc1.O=S(=O)([N-]S(=O)(=O)C(F)(F)F)C(F)(F)F	0.697 ± 0.06	0.746 ± 0.063	0.792 ± 0.066	0.84 ± 0.07	0.889 ± 0.074	0.936 ± 0.077	0.984 ± 0.081
CCCCC [pentane] + CCCC[n+]1ccc(C#N)cc1.O=S(=O)([N-]S(=O)(=O)C(F)(F)F)C(F)(F)F	26.7 ± 2.3	24.2 ± 2.1	22 ± 1.9	20.2 ± 1.7	18.6 ± 1.6	17.2 ± 1.5	16 ± 1.4
CCCO [propan-1-ol] + CCCC[n+]1ccc(C#N)cc1.O=S(=O)([N-]S(=O)(=O)C(F)(F)F)C(F)(F)F	2.38 ± 0.21	2.23 ± 0.19	2.1 ± 0.18	1.98 ± 0.17	1.88 ± 0.16	1.79 ± 0.15	1.7 ± 0.14

Reference: the NIST ThermoML archive (doi:10.1016/j.jct.2016.01.017)
